# According to patent publication US8759360B2, “Purine compounds” (Eli Lilly and Company, priority 2010, dated 2014):
# Structures can show the parent of a compound that is named as a salt. Where two headings read alike, the source gives them in different places.
# How the values were obtained:
# male Lewis rats = experiment: Monoiodoacetate (MIA) model, incapacitance testing; format: in vivo; details: rat, single dose
# Experimental: For all studies male Lewis rats of approximately 8 weeks of age at the time of MIA injection are used to measure pain in the MIA model. The rats are housed in groups of 2 or 3 per cage and maintained in a constant temperature and on a 12 hour light/12 hour dark cycle. Animals have free access to food and water at all times except during data collection.
# In the standard MIA model the right knees of each rat are injected with 0.3 mg MIA in 50 ul of saline and the left knees with 50 ul of saline. Pain is measured at varying times after MIA injection (not normally before 10 day post MIA injection) using incapacitance testing. This measures the difference in hind paw weight bearing between the MIA and saline injected knees, and each measurement is the average of 3 separate measurements each measured over 1 second.
# For studies with CB2 agonists rats are randomized into dose groups (n=5 or 6) and then dosed once with the compound under investigation. Dosing is staggered by 15 minutes for each rat and at a predetermined time post-dose (usually 2 hours), pain measured using incapacitance testing. Studies are routinely run with 4 groups, vehicle (1% carboxy methyl cellulose in water plus 0.25% polysorbate 80) and 3 compound groups which can be either single compounds at a single dose or the same compound at 3 doses. Results are reported as the difference in weight bearing between saline and MIA injected knees and statistical comparisons are made between vehicle treated and compound treated animals to assess the effect of compounds on knee pain in the model.
# hCB2 [1] = biological target: T1, hCB2 (Homo sapiens, UniProt P34972); experiment: CB2 in vitro functional assay (SPA based GTP-γ-35S binding, agonist mode); format: biochemical
# Experimental: (§1) Exemplified compounds are tested in agonist mode using a SPA based GTP-γ-^35S binding assay. All assay components are prepared in assay buffer made up of 20 mM HEPES, 100 mM NaCl, 5 mM MgCl2, (pH 7.4 at room temperature). Semi-log compound dilutions are done in assay buffer containing BSA (final 0.125%). GTP-γ^35-S binding is measured in a 96 well format using a whole membrane capture technique for the CB1 assay and modifications of an antibody capture technique previously described (DeLapp et al. J Pharmacol Exp Ther 289:946-955, 1999) for the CB2 assay. All incubations are done at room temperature.
# hCB2-Sf9 membranes and GDP (1 uM final) are added to assay buffer and homogenized. Diluted compounds and membranes are added to the assay plate and pre-incubated for 15 minutes. This is followed by addition of GTP-γ-^35S ([…] final) and another 35 minute incubation. Next a mixture containing Nonidet P40 detergent (0.2% final), anti-Gi antibody (final dilution of 1:362), and 1.25 mg anti-rabbit antibody scintillation proximity assay beads are added. The plates are then sealed, vortexed, and incubated for an additional 2 hours before centrifuging and counting as for CB1.
# To analyze data, first subtract background from all wells. Determine percent agonist efficacy by normalizing agonist/inverse agonist dose response data to a full agonist (methanandamide) response. […]
# hCB1 = biological target: T2, hCB1 (Homo sapiens, UniProt P21554); experiment: CB1 in vitro functional assay (SPA based GTP-γ-35S binding, agonist mode); format: biochemical
# T2 construct: expressed in transfected cells; host or cells: CHO cells (membranes)
# Experimental: as §1
# hCB1-CHO membranes, GDP (1 uM final), and saponin (10 ug/mL final) are added to assay buffer and homogenized. Diluted compounds, GTP-γ-^35S (500 nM final) and membranes are added to the assay plate and incubated for 30 minutes. Then 1 mg/well Wheatgerm Agglutinin SPA bead is added, and the plates are sealed, vortexed, and incubated for an additional hour. Plates are then centrifuged at 700×g for 10 minutes and counted for 1 minute per well using a scintillation counter.
# To analyze data, first subtract background from all wells. Determine percent agonist efficacy by normalizing agonist/inverse agonist dose response data to a full agonist (methanandamide) response. Analyze the data using a 4-parameter logistic reduced fit with Activity Base and XLFit3.
# [2] = test system: Male Harlan Sprague Dawley rats; experiment: Chemotherapy-induced pain assay (paclitaxel, von Frey); format: in vivo, rat; details: for Mean paw withdrawal latencies (mean ± SE): 1 hour post-dose, n of 12
# Experimental: Male Harlan Sprague Dawley rats 150-200 grams are acclimated to the vivarium for 7 days. The animals are maintained in a constant temperature and on a 12 hour light/12 hour dark cycle, and housed in groups of 3-4 with water and food ad libitum. Twice daily dosing of compound at 10 mg/kg (oral), morphine at 5 mg/kg, and vehicle commences on Day 1 of the study, and continues through the duration of the study (Day 18). Paclitaxel at 1 mg/kg (intraperitoneal) is administered on Days 2, 4, 6, and 8, for a cumulative dose of 4 mg/kg in order to induce chemotherapy-induced peripheral neuropathy.
# Rats are placed in individual plexiglass chambers with a wire mesh platform bottom to allow access to the hindpaw. After an acclimation period of 15 minutes to 1 hour, the mid-plantar hind paws are assessed within the sciatic nerve distribution. A series of 8 von Frey hairs with logarithmically incremental stiffness (0.41, 0.70, 1.20, 2.00, 3.63, 5.50, 8.50, and 15.10 g) are applied to the hind paws. The von Frey hairs are presented perpendicular to the plantar surface with sufficient force to cause slight bending. Stimuli are presented at intervals of several seconds. A positive response is noted if the paw is sharply withdrawn or if flinching immediately upon removal of the hair is observed. On study days, behavioral endpoints are evaluated 1 hour post-dose. Score patterns are evaluated using the Dixon up-down method, and translated to a response threshold (1980, Ann Rev Pharmacol Toxicol 20:441-462). The maximum applied force is 15.10 grams. The initial behavior assessment occurs on Day 10 of the study, and subsequent measures are made on Study Days 12, 15, and 18.
# Results are expressed as mean values with standard errors of the mean (mean±SE) for an n of 12 per group. All statistical evaluations are conducted utilizing a one-way ANOVA followed by comparison to the control group by Dunnett's Method. Statistical significance is assumed when p<0.05. Statistical analyses are performed using JMP statistical analysis software (SAS Research Institute, version 6.0.2).
# [3] = Dose-ranging toxicity study in beagle dogs; format: in vivo, dog; details: both sexes, beagle, dog, 30 mg/kg single oral dose, plasma
# Experimental: (§2) One male and one female beagle dog are used to evaluate the acute toxicity after a single oral gavage dose of CB2 agonist. The dogs are housed individually and maintained in a constant temperature and on a 12 hour light/12 hour dark cycle. CB2 agonist is prepared in vehicle (1% hydroxyethylcellulose, 0.25% polysorbate 80, and 0.05% Dow Corning® Antifoam 1510-US in purified water) and administered by oral gavage at a dose volume of 2 mL/kg. Dogs are observed for mortality and clinical observations (before dosing, 2 hours postdose, in the afternoon and daily thereafter). Food consumption is assessed by daily visual assessment of food remaining. Blood is collected before dosing and 48 hours after dosing to evaluate effects on haematology and clinical chemistry parameters. Blood is collected at 0.5, 1, 2, 4, 8, and 24 hours postdose to evaluate toxicokinetic plasma drug concentrations.
# beagle dog = experiment: Dose-ranging toxicity study in beagle dogs; format: in vivo; details: single oral dose of 30 mg/kg
# Experimental: as §2
# rat CB2 receptor = biological target: T3, rat CB2 receptor (Rattus norvegicus, UniProt Q9QZN9); experiment: Displacement of 3H-CP55940 from rat CB2 receptors; format: binding
# T3 construct: expressed in transfected cells
# T3 sequence (Q9QZN9 1-360): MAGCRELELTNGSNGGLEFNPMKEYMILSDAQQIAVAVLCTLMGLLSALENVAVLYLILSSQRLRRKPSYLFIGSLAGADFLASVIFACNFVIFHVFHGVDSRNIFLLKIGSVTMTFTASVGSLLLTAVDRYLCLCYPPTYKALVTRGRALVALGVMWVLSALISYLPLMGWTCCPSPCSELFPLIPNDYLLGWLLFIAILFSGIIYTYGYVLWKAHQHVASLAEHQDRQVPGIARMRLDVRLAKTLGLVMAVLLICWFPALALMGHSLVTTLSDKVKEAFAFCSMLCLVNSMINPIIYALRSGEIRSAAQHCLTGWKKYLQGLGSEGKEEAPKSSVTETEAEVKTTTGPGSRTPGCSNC
# Experimental: (§3) The methods of Felder et al. (Mol. Pharmaocol. 48:443-450, 1995) were utilized with minor modifications. Specifically, membrane homogenates from cells stably or transiently expressing the human or rat CB2 receptor were washed by centrifugation and diluted into a 50 mM Tris HCl (pH 7.4), 5 mM MgCl2, 2.5 mM EDTA, and 0.1% BSA buffer. Specific binding of 3H-CP55940 was defined with 1 μM CP55940. The ability of compounds to displace specific 3H-CP55940 binding was tested over a range of concentrations in the Tris, MgCl2, EDTA, BSA buffer in the presence of 1% dimethyl sulfoxide by incubating at room temperature for 90 minutes in a volume of 300 μl. Unifilter 96-well microplates pretreated with 0.5% polyvinylpyrrolidone, 0.1% polysorbate 20 in water were washed three times with cold Tris buffer. The reaction mixture was then transferred to the filter plate immediately before terminating the incubation by rapid filtration and three 200 μl washes with cold Tris buffer. After the filter plates dried, microscint 20 was added to each well, the plate sealed and counted for determination of disintegrations per minute. The displacement curves were graphed and the resulting Ki values determined utilizing Graphpad Prism.
# hCB2 [4] = biological target: T1, hCB2; experiment: Displacement of 3H-CP55940 from human CB2 receptors; format: binding; parameters: expressed in transfected cells; details: 3H-CP55940 displacement
# Experimental: as §3
# T1 sequence (P34972 whole entry): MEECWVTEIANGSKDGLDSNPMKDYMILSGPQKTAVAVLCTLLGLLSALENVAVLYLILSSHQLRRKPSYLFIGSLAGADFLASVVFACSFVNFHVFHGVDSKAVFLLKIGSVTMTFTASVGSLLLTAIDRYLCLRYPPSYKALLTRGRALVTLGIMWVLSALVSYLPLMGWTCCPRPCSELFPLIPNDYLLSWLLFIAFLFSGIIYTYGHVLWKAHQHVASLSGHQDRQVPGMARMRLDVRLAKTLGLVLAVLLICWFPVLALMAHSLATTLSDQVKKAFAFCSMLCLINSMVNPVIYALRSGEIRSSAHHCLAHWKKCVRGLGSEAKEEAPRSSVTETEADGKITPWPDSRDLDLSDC
# T2 sequence (P21554 whole entry): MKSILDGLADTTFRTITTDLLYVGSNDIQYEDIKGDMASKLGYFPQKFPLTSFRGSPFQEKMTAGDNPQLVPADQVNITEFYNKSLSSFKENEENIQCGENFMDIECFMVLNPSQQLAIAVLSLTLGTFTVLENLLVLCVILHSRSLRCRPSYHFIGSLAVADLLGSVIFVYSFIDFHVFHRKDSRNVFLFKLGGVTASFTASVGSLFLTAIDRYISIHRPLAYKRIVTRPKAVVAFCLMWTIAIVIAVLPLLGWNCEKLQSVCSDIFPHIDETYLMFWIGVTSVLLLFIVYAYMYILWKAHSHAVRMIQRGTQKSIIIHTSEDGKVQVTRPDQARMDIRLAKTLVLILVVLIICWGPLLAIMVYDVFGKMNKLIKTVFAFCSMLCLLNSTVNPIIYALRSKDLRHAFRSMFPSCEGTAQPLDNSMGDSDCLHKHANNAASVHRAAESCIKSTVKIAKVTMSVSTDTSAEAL
structure (smiles),measurement,setting,value
"Cc1nc(N2CCN(C)CC2)c2nc(-c3ccccc3Cl)n(C(C)CO)c2n1.Cl (single isomer, unassigned; isomer 1) [Example 18, 2-[8-(2-Chloro-phenyl)-2-methyl-6-(4-methyl-piperazin-1-yl)-purin-9-yl]-propan-1-ol hydrochloride, Isomer 1]",pain versus vehicle (difference in hind paw weight bearing),male Lewis rats; dose of 0.3 mg/kg,reduce pain versus vehicle
"Cc1nc(N2CCN(C)CC2)c2nc(-c3ccccc3Cl)n(C(C)CO)c2n1.Cl (single isomer, unassigned; isomer 2) [Example 19, 2-[8-(2-Chloro-phenyl)-2-methyl-6-(4-methyl-piperazin-1-yl)-purin-9-yl]-propan-1-ol hydrochloride, Isomer 2]",EC50,"hCB2 [1]; agonist mode, hCB2-Sf9 membranes, read-out: relative EC50 value for CB2",22.4 nM
same,EC50,"hCB1; agonist mode, hCB1-CHO membranes, read-out: relative EC50 value for CB1",> 100000 nM
same,pain versus vehicle (difference in hind paw weight bearing),male Lewis rats; dose of 0.3 mg/kg,reduce pain versus vehicle
same,pain versus vehicle (difference in hind paw weight bearing),male Lewis rats; dose of 1 mg/kg,reduce pain versus vehicle
same,allodynia compared to both vehicle and morphine-treated animals,"[2]; 10 mg/kg oral twice daily, over the duration of the study (Day 18)",developed less allodynia
same,Mean paw withdrawal latencies (mean ± SE),"[2]; Day 10, 10 mg/kg oral twice daily",11.25 ± 1.31
same,Mean paw withdrawal latencies (mean ± SE),"[2]; Day 12, 10 mg/kg oral twice daily",7.38 ± 0.95
same,Mean paw withdrawal latencies (mean ± SE),"[2]; Day 15, 10 mg/kg oral twice daily",7.90 ± 1.04
same,Mean paw withdrawal latencies (mean ± SE),"[2]; Day 18, 10 mg/kg oral twice daily",6.02 ± 0.72
same,AUC(0-t),[3]; read-out: mean Area-Under the Curve from 0-24 hours (AUC0-24hr),44500 ng·h/mL
same,Cmax,[3]; read-out: mean maximum concentration (Cmax),7540 ng/mL
same,faeces,beagle dog; female dog,Decreased faeces
same,food consumption,beagle dog; female dog,minimal decreased food consumption
same,"decrease in reticulocyte count, change relative to pre-dose","beagle dog; female dog, 48 hours after dosing",39%
same,Post-dose clinical observations,beagle dog; one male and one female dog,limited to vomiting and dilated pupils
"COCCCn1c(-c2ccccc2Cl)nc2c(N3CCN(CCF)CC3)nc(C)nc21 [Example 6, 8-(2-Chlorophenyl)-6-[4-(2-fluoroethyl)piperazin-1-yl]-9-(3-methoxypropyl)-2-methyl-purine hydrochloride]",EC50,hCB2 [1],2.7 nM
same,EC50,hCB1,> 100000 nM
"COC(C)(C)Cn1c(-c2ccccc2Cl)nc2c(N3CCN(C(C)=O)CC3)nc(C)nc21 [Example 8, 1-[4-[8-(2-Chlorophenyl)-9-(2-methoxy-2-methyl-propyl)-2-methyl-purin-6-yl]piperazin-1-yl]ethanone]",Ki,rat CB2 receptor,37.5 nM
same,Ki,hCB2 [4],142 nM
"CC(=O)N1CCN(c2nc(C)nc3c2nc(-c2ccccc2Cl)n3CC(C)(C)O)CC1 [Example 13, 1-[4-[8-(2-Chlorophenyl)-9-(2-hydroxy-2-methyl-propyl)-2-methyl-purin-6-yl]piperazin-1-yl]ethanone hydrochloride]",Ki,"rat CB2 receptor; 3H-CP55940 displacement, rat CB2, read-out: rat receptor Ki value",215 nM
same,Ki,hCB2 [4],65.2 nM
"CN1CC[C@]23c4c5ccc(O)c4O[C@H]2[C@@H](O)C=C[C@H]3[C@H]1C5 [Morphine, reference compound]",Mean paw withdrawal latencies (mean ± SE),"[2]; Day 10, 5 mg/kg twice daily",8.16 ± 1.22
same,Mean paw withdrawal latencies (mean ± SE),"[2]; Day 12, 5 mg/kg twice daily",3.67 ± 0.30
same,Mean paw withdrawal latencies (mean ± SE),"[2]; Day 15, 5 mg/kg twice daily",3.84 ± 0.45
same,Mean paw withdrawal latencies (mean ± SE),"[2]; Day 18, 5 mg/kg twice daily",3.46 ± 0.42
